Test results as given in patent US7732449B2, “Inhibitors of cathepsin S” (IRM LLC, priority 2003, dated 2010).
Read-outs that look alike come from different tables or passages of the source.

Columns and labels:
Assay type in all cases: biochemical
[1] = target: T1, Cathepsin K (Homo sapiens, UniProt P43235); test: Cathepsin K inhibition, fluorogenic peptide substrate kinetic assay (selectivity); details: ratio of cathepsin K inhibition constant to cathepsin S inhibition constant
T1 sequence (P43235 115-329): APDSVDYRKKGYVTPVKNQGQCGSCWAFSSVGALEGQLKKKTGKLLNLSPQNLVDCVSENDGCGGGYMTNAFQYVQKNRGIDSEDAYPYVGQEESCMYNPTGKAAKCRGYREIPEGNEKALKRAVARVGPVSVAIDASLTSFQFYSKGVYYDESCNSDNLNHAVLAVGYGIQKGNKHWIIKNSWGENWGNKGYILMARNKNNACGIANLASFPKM

[2] = target: Cathepsin L (Homo sapiens, UniProt P07711); test: Cathepsin L inhibition, fluorogenic peptide substrate kinetic assay (selectivity); details: ratio of cathepsin L inhibition constant to cathepsin S inhibition constant
[3] = target: Cathepsin S (Homo sapiens, UniProt P25774); test: Cathepsin S inhibition, fluorogenic peptide substrate kinetic assay;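 note: cleavage rate of a coumarin-labelled peptide substrate (50 µM) read as fluorescence increase at Ex 380 nm and Em 450 nm, relative to inhibitor-free control reactions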
[4] = target: Cathepsin B (Homo sapiens, UniProt P07858); test: Cathepsin B inhibition, fluorogenic peptide substrate kinetic assay (selectivity); details: ratio of cathepsin B inhibition constant to cathepsin S inhibition constant;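 note: value is the cathepsin B inhibition constant divided by the cathepsin S one, each from kinetic fluorescence readings (ex 380 nm, em 450 nm) of a 10 µM coumarin peptide substrate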
[5] = Cathepsin S inhibition constant, pH5.5, 20 minutes preincubation at room temperature, read-out: Ki Cat. S

Chain of Cathepsin L (P07711 114-333, species assumed): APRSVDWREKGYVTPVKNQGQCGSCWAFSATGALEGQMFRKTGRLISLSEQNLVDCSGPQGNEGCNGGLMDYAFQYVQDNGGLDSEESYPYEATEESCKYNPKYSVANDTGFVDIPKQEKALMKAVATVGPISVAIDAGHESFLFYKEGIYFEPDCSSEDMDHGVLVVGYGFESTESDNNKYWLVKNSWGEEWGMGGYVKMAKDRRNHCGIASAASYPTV
Chain of Cathepsin S (P25774 115-331, species assumed): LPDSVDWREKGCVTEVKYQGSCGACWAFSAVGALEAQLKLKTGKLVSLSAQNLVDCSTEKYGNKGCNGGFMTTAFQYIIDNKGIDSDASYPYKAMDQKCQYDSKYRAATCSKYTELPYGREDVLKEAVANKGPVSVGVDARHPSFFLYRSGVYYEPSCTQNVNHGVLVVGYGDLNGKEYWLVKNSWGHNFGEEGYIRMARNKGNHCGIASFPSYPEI

Selectivity for Cat. S over Cat. K [1] | Selectivity for Cat. S over Cat. L [2] | Ki [3, 5] | Selectivity for Cat. S over Cat. B [4] | Ki [3] | SMILES
++ (++, >100) | + (+, >10) | < 100 nM | +++ (+++, >1000) | – | CC[C@@H](CNc1ccc(OC(F)(F)F)cc1)NC(=O)[C@H](CCC1CCCC1)CC(=O)N1CCOCC1 [Example 36, 2-(R)-(2-Cyclopentyl-ethyl)-4-morpholin-4-yl-4-oxo-N-{1-(S)-[(4-trifluoromethoxy-phenylamino)-methyl]-propyl}-butyramide]
++ (++, >100) | + (+, >10) | – | ++ (++, >100) | < 100 nM | O=C(N[C@@H](CCc1ccccc1)CNc1ccc(OC(F)(F)F)cc1)[C@H](CCC1CCCC1)CC(=O)N1CCOCC1 [Example 37, 2-(R)-(2-Cyclopentyl-ethyl)-4-morpholin-4-yl-4-oxo-N-{3-phenyl-1-(S)-[(4-trifluoromethoxy-phenylamino)-methyl]-propyl}-butyramide]
+ (+, >10) | ++ (++, >100) | < 100 nM | +++ (+++, >1000) | – | CCC[C@@H](CNc1ccc(OC(F)(F)F)cc1)NC(=O)[C@@H](CC(=O)N1CCOCC1)c1ccccc1 [Example 39, 4-Morpholin-4-yl-4-oxo-2-(S)-phenyl-N-{1-(S)-[(4-trifluoromethoxy-phenylamino)-methyl]-butyl}-butyramide]
+ (+, >10) | ++ (++, >100) | – | +++ (+++, >1000) | < 100 nM | CC(C)[C@@H](CNc1ccc(OC(F)(F)F)cc1)NC(=O)[C@@H](CC(=O)N1CCOCC1)c1ccc(F)cc1 [Example 41, 2-(S)-(4-Fluoro-phenyl)-N-{2-methyl-1-(S)-[(4-trifluoromethoxy-phenylamino)-methyl]-propyl}-4-morpholin-4-yl-4-oxo-butyramide]
+++ (+++, >1000) | ++ (++, >100) | – | +++ (+++, >1000) | < 100 nM | CC(C)[C@@H](CNc1ccc(OC(F)(F)F)cc1)NC(=O)[C@@H](CC(=O)N1CCOCC1)c1ccc(Cl)cc1 [Example 42, 2-(S)-(4-Chloro-phenyl)-N-{2-methyl-1-(S)-[(4-trifluoromethoxy-phenylamino)-methyl]-propyl}-4-morpholin-4-yl-4-oxo-butyramide]
++ (++, >100) | ++ (++, >100) | – | ++ (++, >100) | 100 to 1000 nM | CC(C)[C@@H](CNc1ccc(OC(F)(F)F)cc1)NC(=O)[C@H](CC(=O)N1CCOCC1)c1ccc(Cl)cc1 [Example 43, 2-(R)-(4-Chloro-phenyl)-N-{2-methyl-1-(S)-[(4-trifluoromethoxy-phenylamino)-methyl]-propyl}-4-morpholin-4-yl-4-oxo-butyramide]
++ (++, >100) | ++ (++, >100) | – | +++ (+++, >1000) | < 100 nM | O=C(N[C@H](CNc1ccc(OC(F)(F)F)cc1)c1ccccc1)[C@@H](CC(=O)N1CCOCC1)CC1CCCCC1 [Example 45, 2-(R)-Cyclohexylmethyl-4-morpholin-4-yl-4-oxo-N-[1-(S)-phenyl-2-(4-trifluoromethoxy-phenylamino)-ethyl]-butyramide]
+++ (+++, >1000) | ++ (++, >100) | < 100 nM | +++ (+++, >1000) | – | O=C(N[C@H](CNc1ccc(OC(F)(F)F)cc1)c1ccccc1)[C@H](CCC1CCCC1)CC(=O)N1CCOCC1 [Example 46, 2-(R)-(2-Cyclopentyl-ethyl)-4-morpholin-4-yl-4-oxo-N-[1-(S)-phenyl-2-(4-trifluoromethoxy-phenylamino)-ethyl]-butyramide]
+ (+, >10) | ++ (++, >100) | 100 to 1000 nM | ++ (++, >100) | – | O=C(N[C@H](CNc1ccc(OC(F)(F)F)cc1)c1ccccc1)[C@@H](CC(=O)N1CCOCC1)c1ccc(Cl)cc1 [Example 48, 2-(S)-(4-Chloro-phenyl)-4-morpholin-4-yl-4-oxo-N-[1-(S)-phenyl-2-(4-trifluoromethoxy-phenylamino)-ethyl]-butyramide]
+ (+, >10) | + (+, >10) | 1000 to 10000 nM | + (+, >10) | – | Cc1cc(NCCNC(=O)[C@H](CCC(C)(C)C)CC(=O)N2CCOCC2)no1 [Example 49, (R)-5,5-Dimethyl-2-(2-morpholin-4-yl-2-oxo-ethyl)-hexanoic acid [2-(5-methyl-isoxazol-3-ylamino)-ethyl]-amide]
++ (++, >100) | + (+, >10) | < 100 nM | +++ (+++, >1000) | – | C[C@@H](CNc1ccc(OC(F)(F)F)cc1)NC(=O)[C@@H](CC(=O)N1CCSCC1)CC1CCCCC1 [Example 51, 2-(R)-Cyclohexylmethyl-N-[1-(S)-methyl-2-(4-trifluoromethoxy-phenylamino)-ethyl]-4-oxo-4-thiomorpholin-4-yl-butyramide]
+ (+, >10) | ++ (++, >100) | 100 to 1000 nM | ++ (++, >100) | – | CC(=O)N1CCN(C(=O)C[C@@H](CC2CCCCC2)C(=O)N[C@@H](C)CNc2ccc(OC(F)(F)F)cc2)CC1 [Example 52, 4-(4-Acetyl-piperazin-1-yl)-2-(R)-cyclohexylmethyl-N-[1-(S)-methyl-2-(4-trifluoromethoxy-phenylamino)-ethyl]-4-oxo-butyramide]
++ (++, >100) | ++ (++, >100) | – | ++ (++, >100) | 100 to 1000 nM | COc1ccc([C@H](CC(=O)N2CCOCC2)C(=O)N[C@H](CNc2ccc(OC(F)(F)F)cc2)C(C)C)cc1 [Example 53, 2-(S)-(4-Methoxy-phenyl)-N-{2-methyl-1-(S)-[(4-trifluoromethoxy-phenylamino)-methyl]-propyl}-4-morpholin-4-yl-4-oxo-butyramide]
+++ (+++, >1000) | ++ (++, >100) | < 100 nM | +++ (+++, >1000) | – | C[C@@H](CN1CC(C)(C)c2cc(F)ccc21)NC(=O)[C@@H](CC(=O)N1CCOCC1)CC1CCCCC1 [Example 54, 2-(R)-Cyclohexylmethyl-N-[2-(5-fluoro-3,3-dimethyl-2,3-dihydro-indol-1-yl)-1-(S)-methyl-ethyl]-4-morpholin-4-yl-4-oxo-butyramide]
+++ (+++, >1000) | ++ (++, >100) | – | ++ (++, >100) | 100 to 1000 nM | CC(C)[C@@H](CNc1ccc(OC(F)(F)F)cc1)NC(=O)[C@@H](CC(=O)N1CCOCC1)c1ccc(C(F)(F)F)cc1 [Example 55, N-{2-Methyl-1-(S)-[(4-trifluoromethoxy-phenylamino)-methyl]-propyl}-4-morpholin-4-yl-4-oxo-2-(S)-(4-trifluoromethyl-phenyl)-butyramide]
++ (++, >100) | ++ (++, >100) | – | ++ (++, >100) | 100 to 1000 nM | Cc1ccc([C@H](CC(=O)N2CCOCC2)C(=O)N[C@H](CNc2ccc(OC(F)(F)F)cc2)C(C)C)cc1 [Example 57, N-{2-Methyl-1-(S)-[(4-trifluoromethoxy-phenylamino)-methyl]-propyl}-4-morpholin-4-yl-4-oxo-2-(S)-p-tolyl-butyramide]
++ (++, >100) | + (+, >10) | 100 to 1000 nM | ++ (++, >100) | – | C[C@@H](CNc1ccc(OC(F)(F)F)cc1)NC(=O)[C@@H](CC(=O)N1CCS(=O)(=O)CC1)CC1CCCCC1 [Example 58, 2-(R)-Cyclohexylmethyl-4-(1,1-dioxo-thiomorpholin-4-yl)-N-[1-(S)-methyl-2-(4-trifluoromethoxy-phenylamino)-ethyl]-4-oxo-butyramide]
+ (+, >10) | + (+, >10) | 1000 to 10000 nM | + (+, >10) | – | CCC1(O)CCCC(C[C@H](CC(=O)N2CCOCC2)C(=O)N[C@@H](C)CNc2ccc(OC(F)(F)F)cc2)C1 (stereo partly drawn) [Example 59, 2-(R)-(3-Ethyl-3-hydroxy-cyclohexylmethyl)-N-[1-(S)-methyl-2-(4-trifluoromethoxy-phenylamino)-ethyl]-4-morpholin-4-yl-4-oxo-butyramide]
+ (+, >10) | + (+, >10) | – | + (+, >10) | 1000 to 10000 nM | C[C@@H](CNc1ccc(OC(F)(F)F)cc1)NC(=O)[C@@H](CC(=O)N1CCOCC1)c1ccc(C(F)(F)F)cc1 [Example 60, N-[1-(S)-Methyl-2-(4-trifluoromethoxy-phenylamino)-ethyl]-4-morpholin-4-yl-4-oxo-2-(S)-(4-trifluoromethyl-phenyl)-butyramide]
